Assay results reported in article PMC9133015 (Nature Communications, 2022).
Where “and” joins values, the source holds several entries; their conditions need not be identical. Identical values can stand only once.

How the values were obtained:
Test in all cases: Kinase inhibitor specificity profiling (Reaction Biology Corporation)
Type in all cases: biochemical
Parameters in all cases: % Enzyme Activity (relative to DMSO controls): concentration or dose not given beside the values
[1] = target: T1, panel of 370 protein kinases (Homo sapiens, UniProt P29323); conditions: kinase EPHB2
T1 construct: purchased Reaction Biology Corporation (assay service)

[2] = target: T2, panel of 370 protein kinases (Homo sapiens, UniProt O60674); conditions: kinase JAK2
T2 construct: purchased Reaction Biology Corporation (assay service)

[3] = target: T3, panel of 370 protein kinases (Homo sapiens, UniProt P30291); conditions: 2 h, kinase WEE1; read-out: % Enzyme Activity (relative to DMSO controls)
T3 construct: purchased Reaction Biology Corporation (assay service)

[4] = target: T4, panel of 370 protein kinases (Homo sapiens, UniProt P09619); conditions: 2 h, kinase PDGFRb; read-out: % Enzyme Activity (relative to DMSO controls)
T4 construct: purchased Reaction Biology Corporation (assay service)

[5] = target: T5, panel of 370 protein kinases (Homo sapiens, UniProt Q9Y5S2); conditions: 2 h, kinase MRCKb/CDC42BPB; read-out: % Enzyme Activity (relative to DMSO controls)
T5 construct: purchased Reaction Biology Corporation (assay service)

[6] = target: T6, panel of 370 protein kinases (Homo sapiens, UniProt O15530); conditions: 2 h, kinase PDK1/PDPK1; read-out: % Enzyme Activity (relative to DMSO controls)
T6 construct: purchased Reaction Biology Corporation (assay service)

[7] = target: T7, panel of 370 protein kinases (Homo sapiens, UniProt P27361); conditions: 2 h, kinase ERK1; read-out: % Enzyme Activity (relative to DMSO controls)
T7 construct: purchased Reaction Biology Corporation (assay service)

[8] = target: T8, panel of 370 protein kinases (Homo sapiens, UniProt Q52WX2); conditions: 2 h, kinase SBK1; read-out: % Enzyme Activity (relative to DMSO controls)
T8 construct: purchased Reaction Biology Corporation (assay service)

[9] = target: T9, panel of 370 protein kinases (Homo sapiens, UniProt P29322); conditions: 2 h, kinase EPHA8; read-out: % Enzyme Activity (relative to DMSO controls)
T9 construct: purchased Reaction Biology Corporation (assay service)

[10] = target: T10, panel of 370 protein kinases (Homo sapiens, UniProt P04629); conditions: 2 h, kinase TRKA; read-out: % Enzyme Activity (relative to DMSO controls)
T10 construct: purchased Reaction Biology Corporation (assay service)

[11] = target: T11, panel of 370 protein kinases (Homo sapiens, UniProt Q9UK32); conditions: kinase RSK4
T11 construct: purchased Reaction Biology Corporation (assay service)

[12] = target: T12, panel of 370 protein kinases (Homo sapiens, UniProt Q9Y3S1); conditions: 2 h, kinase WNK2; read-out: % Enzyme Activity (relative to DMSO controls)
T12 construct: purchased Reaction Biology Corporation (assay service)

[13] = target: T13, panel of 370 protein kinases (Homo sapiens, UniProt Q02156); conditions: 2 h, kinase PKCepsilon; read-out: % Enzyme Activity (relative to DMSO controls)
T13 construct: purchased Reaction Biology Corporation (assay service)

[14] = target: T14, panel of 370 protein kinases (Homo sapiens, UniProt P29317); conditions: 2 h, kinase EPHA2; read-out: % Enzyme Activity (relative to DMSO controls)
T14 construct: purchased Reaction Biology Corporation (assay service)

[15] = target: T15, panel of 370 protein kinases (Homo sapiens, UniProt P78368); conditions: kinase CK1g2
T15 construct: purchased Reaction Biology Corporation (assay service)

[16] = target: T16, panel of 370 protein kinases (Homo sapiens, UniProt Q86Z02); conditions: 2 h, kinase HIPK1; read-out: % Enzyme Activity (relative to DMSO controls)
T16 construct: purchased Reaction Biology Corporation (assay service)

[17] = target: T17, panel of 370 protein kinases (Homo sapiens, UniProt Q9H4B4); conditions: 2 h, kinase PLK3; read-out: % Enzyme Activity (relative to DMSO controls)
T17 construct: purchased Reaction Biology Corporation (assay service)

[18] = target: T18, panel of 370 protein kinases (Homo sapiens, UniProt Q13163); conditions: 2 h, kinase MEK5; read-out: % Enzyme Activity (relative to DMSO controls)
T18 construct: purchased Reaction Biology Corporation (assay service)

[19] = target: T19, panel of 370 protein kinases (Homo sapiens, UniProt Q99986); conditions: kinase VRK1
T19 construct: purchased Reaction Biology Corporation (assay service)

[20] = target: T20, panel of 370 protein kinases (Homo sapiens, UniProt Q99759); conditions: 2 h, kinase MEKK3; read-out: % Enzyme Activity (relative to DMSO controls)
T20 construct: purchased Reaction Biology Corporation (assay service)

[21] = target: T21, panel of 370 protein kinases (Homo sapiens, UniProt P23458); conditions: kinase JAK1
T21 construct: purchased Reaction Biology Corporation (assay service)

[22] = target: T22, panel of 370 protein kinases (Homo sapiens, UniProt Q9UIK4); conditions: 2 h, kinase DAPK2; read-out: % Enzyme Activity (relative to DMSO controls)
T22 construct: purchased Reaction Biology Corporation (assay service)

T2 sequence (O60674 whole entry): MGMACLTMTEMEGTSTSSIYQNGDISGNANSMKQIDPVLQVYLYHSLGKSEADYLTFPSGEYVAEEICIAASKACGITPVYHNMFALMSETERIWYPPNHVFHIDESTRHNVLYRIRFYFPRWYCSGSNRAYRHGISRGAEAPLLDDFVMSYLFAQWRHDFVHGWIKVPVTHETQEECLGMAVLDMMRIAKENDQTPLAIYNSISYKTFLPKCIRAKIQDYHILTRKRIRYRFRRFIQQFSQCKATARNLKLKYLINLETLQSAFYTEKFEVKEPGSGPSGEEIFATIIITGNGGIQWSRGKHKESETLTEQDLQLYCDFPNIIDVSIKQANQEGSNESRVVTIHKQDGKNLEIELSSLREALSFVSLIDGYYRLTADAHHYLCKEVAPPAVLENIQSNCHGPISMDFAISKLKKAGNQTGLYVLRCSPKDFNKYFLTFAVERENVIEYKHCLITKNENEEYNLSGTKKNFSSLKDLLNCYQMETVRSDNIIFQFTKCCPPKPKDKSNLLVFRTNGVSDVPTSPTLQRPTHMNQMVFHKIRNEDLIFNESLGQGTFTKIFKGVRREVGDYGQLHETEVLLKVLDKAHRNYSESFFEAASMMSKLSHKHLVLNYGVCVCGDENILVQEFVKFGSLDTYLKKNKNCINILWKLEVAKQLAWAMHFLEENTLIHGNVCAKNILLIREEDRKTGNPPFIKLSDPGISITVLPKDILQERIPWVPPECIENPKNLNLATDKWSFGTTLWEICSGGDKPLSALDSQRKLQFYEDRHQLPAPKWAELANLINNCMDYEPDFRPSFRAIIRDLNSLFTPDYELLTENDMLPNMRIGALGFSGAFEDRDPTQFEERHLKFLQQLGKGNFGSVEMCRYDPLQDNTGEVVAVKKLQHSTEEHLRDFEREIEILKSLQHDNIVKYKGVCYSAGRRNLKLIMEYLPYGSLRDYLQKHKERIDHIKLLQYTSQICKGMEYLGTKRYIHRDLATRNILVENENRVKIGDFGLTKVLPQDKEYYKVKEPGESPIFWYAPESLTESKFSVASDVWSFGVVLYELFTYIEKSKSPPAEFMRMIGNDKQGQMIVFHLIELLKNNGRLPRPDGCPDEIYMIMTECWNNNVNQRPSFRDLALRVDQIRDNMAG
T1 sequence (P29323 19-1055): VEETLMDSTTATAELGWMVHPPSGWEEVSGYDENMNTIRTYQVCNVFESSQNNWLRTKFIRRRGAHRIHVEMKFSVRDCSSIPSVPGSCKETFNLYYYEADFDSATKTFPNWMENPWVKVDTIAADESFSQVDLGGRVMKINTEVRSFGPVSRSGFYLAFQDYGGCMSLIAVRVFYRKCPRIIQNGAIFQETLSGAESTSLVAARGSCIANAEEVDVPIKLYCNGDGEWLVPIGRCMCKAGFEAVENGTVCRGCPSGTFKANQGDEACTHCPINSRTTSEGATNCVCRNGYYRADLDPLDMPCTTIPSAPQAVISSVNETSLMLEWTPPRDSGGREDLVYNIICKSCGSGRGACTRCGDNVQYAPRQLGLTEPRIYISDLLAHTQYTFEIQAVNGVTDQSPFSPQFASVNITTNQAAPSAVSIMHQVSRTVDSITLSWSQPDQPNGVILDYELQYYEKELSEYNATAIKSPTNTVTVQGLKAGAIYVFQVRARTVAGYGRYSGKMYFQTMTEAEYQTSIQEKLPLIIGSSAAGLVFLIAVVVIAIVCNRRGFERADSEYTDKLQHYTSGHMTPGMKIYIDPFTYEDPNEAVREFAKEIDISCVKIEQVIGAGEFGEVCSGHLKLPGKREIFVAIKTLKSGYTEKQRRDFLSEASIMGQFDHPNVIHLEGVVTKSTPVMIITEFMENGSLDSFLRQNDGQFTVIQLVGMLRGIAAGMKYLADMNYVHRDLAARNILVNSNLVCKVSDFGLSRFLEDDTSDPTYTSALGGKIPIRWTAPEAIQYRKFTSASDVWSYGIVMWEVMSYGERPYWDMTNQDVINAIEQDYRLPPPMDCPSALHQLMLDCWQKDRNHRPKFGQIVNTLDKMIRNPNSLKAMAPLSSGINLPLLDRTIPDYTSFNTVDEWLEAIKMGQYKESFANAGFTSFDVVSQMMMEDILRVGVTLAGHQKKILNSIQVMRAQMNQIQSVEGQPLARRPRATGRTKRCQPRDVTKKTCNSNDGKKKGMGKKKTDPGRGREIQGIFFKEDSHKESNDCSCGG
T15 sequence (P78368 whole entry): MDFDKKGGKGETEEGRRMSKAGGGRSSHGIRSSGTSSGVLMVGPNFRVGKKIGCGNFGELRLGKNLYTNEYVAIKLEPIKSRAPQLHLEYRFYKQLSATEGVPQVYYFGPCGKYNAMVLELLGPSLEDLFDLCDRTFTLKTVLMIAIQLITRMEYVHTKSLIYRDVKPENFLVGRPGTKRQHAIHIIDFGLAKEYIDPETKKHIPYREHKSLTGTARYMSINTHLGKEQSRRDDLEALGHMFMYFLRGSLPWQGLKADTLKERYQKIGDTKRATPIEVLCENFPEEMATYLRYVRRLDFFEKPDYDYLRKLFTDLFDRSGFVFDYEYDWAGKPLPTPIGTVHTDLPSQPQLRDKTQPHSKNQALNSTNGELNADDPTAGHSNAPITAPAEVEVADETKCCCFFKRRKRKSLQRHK
T19 sequence (Q99986 whole entry): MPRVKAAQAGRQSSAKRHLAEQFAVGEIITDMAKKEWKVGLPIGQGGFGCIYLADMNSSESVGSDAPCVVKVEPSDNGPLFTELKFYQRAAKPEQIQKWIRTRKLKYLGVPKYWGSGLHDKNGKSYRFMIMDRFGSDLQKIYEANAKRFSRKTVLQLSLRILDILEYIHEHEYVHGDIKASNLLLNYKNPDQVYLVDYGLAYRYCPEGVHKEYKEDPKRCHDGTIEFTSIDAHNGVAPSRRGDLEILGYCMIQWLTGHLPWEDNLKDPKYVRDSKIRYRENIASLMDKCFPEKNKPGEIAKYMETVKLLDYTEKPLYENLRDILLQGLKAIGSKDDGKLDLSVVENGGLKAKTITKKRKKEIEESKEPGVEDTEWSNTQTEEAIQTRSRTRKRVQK
T11 sequence (Q9UK32 whole entry): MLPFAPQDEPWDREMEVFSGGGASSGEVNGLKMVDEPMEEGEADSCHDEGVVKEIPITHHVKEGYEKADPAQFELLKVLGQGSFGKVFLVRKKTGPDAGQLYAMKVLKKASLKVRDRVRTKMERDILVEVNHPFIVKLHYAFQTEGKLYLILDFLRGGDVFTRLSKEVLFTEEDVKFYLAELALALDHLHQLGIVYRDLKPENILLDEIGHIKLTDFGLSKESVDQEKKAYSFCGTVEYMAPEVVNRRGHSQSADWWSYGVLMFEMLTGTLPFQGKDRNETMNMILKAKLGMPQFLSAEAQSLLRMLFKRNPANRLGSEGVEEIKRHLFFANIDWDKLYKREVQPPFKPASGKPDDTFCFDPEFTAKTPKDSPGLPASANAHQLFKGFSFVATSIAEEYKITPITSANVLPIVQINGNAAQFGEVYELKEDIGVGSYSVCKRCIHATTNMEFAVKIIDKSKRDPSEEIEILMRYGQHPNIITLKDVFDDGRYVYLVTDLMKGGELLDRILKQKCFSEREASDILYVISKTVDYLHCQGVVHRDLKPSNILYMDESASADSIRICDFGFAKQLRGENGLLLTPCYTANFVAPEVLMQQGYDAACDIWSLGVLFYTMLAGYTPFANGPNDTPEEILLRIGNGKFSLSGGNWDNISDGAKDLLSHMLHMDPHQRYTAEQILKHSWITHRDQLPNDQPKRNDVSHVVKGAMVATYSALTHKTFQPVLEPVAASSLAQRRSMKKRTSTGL
T21 sequence (P23458 whole entry): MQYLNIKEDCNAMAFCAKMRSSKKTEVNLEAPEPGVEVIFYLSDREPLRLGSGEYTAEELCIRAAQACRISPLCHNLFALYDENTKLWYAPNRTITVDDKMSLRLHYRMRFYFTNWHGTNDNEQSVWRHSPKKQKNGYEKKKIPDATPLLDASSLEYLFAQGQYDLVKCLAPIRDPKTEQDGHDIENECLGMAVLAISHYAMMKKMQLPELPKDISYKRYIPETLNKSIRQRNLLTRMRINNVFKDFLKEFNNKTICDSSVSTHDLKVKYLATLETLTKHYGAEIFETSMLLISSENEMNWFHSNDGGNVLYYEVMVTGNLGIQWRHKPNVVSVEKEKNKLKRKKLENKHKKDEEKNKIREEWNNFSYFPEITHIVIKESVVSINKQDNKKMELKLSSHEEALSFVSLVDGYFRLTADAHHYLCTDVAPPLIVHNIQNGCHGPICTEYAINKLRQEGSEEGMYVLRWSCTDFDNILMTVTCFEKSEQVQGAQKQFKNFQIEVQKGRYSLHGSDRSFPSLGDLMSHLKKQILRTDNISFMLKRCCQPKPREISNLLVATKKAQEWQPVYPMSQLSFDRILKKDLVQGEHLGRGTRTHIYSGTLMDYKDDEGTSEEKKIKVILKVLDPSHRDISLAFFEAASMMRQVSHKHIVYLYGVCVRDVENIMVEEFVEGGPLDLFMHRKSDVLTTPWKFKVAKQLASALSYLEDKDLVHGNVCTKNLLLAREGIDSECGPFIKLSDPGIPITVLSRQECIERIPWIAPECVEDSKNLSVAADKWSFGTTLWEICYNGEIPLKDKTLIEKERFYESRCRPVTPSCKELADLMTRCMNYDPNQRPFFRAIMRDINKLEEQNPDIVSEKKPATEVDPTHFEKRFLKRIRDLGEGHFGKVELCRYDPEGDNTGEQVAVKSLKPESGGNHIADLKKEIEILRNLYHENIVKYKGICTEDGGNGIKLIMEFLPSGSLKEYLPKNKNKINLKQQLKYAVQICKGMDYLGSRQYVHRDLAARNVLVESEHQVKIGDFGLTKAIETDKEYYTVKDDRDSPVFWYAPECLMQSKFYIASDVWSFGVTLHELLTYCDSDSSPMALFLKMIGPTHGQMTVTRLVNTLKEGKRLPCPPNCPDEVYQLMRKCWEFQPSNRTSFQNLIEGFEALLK

What does the source list for CCN1CCN(C(=O)c2ccc(Nc3ncc(F)c(-c4ccc5nc(N(C)C)sc5c4)n3)nc2)CC1 [YK-2-69]?
% Enzyme Activity (relative to DMSO controls) [1]: 102.42% and 102.08%; % Enzyme Activity (relative to DMSO controls) [2]: 101.21% and 93.21%; remaining activity at 1 µM [3]: 98.5%; remaining activity at 1 µM [4]: 97.5%; remaining activity at 1 µM [5]: 105%; remaining activity at 1 µM [6]: 100%; remaining activity at 1 µM [7]: 101%; remaining activity at 1 µM [8]: 103%; remaining activity at 1 µM [9]: 102%; remaining activity at 1 µM [10]: 104%; % Enzyme Activity (relative to DMSO controls) [11]: 87.21% and 86.27%; remaining activity at 1 µM [12]: 99.9%; remaining activity at 1 µM [13]: 91.3%; remaining activity at 1 µM [14]: 103%; % Enzyme Activity (relative to DMSO controls) [15]: 92.19% and 91.13%; remaining activity at 1 µM [16]: 106%; remaining activity at 1 µM [17]: 99.7%; remaining activity at 1 µM [18]: 96.3%; % Enzyme Activity (relative to DMSO controls) [19]: 95.92% and 87.82%; remaining activity at 1 µM [20]: 106%; % Enzyme Activity (relative to DMSO controls) [21]: 103.96% and 100.40%; remaining activity at 1 µM [22]: 89.2%
